ChEMBL document CHEMBL1201862, “PubChem BioAssay data set” (2004)
Active and inactive are the calls of the source.

Assays:
Type in all cases: functional
[1] = molecular target: Protein kinase C theta type (Homo sapiens, UniProt Q04759); test: Navigating the Kinome. Panel member name: PRKCQ
[2] = molecular target: Dual specificity protein kinase CLK2 (Homo sapiens, UniProt P49760)
[3] = molecular target: Tyrosine-protein kinase JAK2 (Homo sapiens, UniProt O60674);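 further: JAK2 tested as one member of a kinase panel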
[4] = molecular target: Serine/threonine-protein kinase TBK1 (Homo sapiens, UniProt Q9UHD2); test: Navigating the Kinome. Panel member name: TBK1
[5] = molecular target: Proto-oncogene tyrosine-protein kinase receptor Ret (Homo sapiens, UniProt P07949);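 further: measured within a kinome-wide profiling panel, RET as the panel member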
Chain of Proto-oncogene tyrosine-protein kinase receptor Ret (P07949 whole entry): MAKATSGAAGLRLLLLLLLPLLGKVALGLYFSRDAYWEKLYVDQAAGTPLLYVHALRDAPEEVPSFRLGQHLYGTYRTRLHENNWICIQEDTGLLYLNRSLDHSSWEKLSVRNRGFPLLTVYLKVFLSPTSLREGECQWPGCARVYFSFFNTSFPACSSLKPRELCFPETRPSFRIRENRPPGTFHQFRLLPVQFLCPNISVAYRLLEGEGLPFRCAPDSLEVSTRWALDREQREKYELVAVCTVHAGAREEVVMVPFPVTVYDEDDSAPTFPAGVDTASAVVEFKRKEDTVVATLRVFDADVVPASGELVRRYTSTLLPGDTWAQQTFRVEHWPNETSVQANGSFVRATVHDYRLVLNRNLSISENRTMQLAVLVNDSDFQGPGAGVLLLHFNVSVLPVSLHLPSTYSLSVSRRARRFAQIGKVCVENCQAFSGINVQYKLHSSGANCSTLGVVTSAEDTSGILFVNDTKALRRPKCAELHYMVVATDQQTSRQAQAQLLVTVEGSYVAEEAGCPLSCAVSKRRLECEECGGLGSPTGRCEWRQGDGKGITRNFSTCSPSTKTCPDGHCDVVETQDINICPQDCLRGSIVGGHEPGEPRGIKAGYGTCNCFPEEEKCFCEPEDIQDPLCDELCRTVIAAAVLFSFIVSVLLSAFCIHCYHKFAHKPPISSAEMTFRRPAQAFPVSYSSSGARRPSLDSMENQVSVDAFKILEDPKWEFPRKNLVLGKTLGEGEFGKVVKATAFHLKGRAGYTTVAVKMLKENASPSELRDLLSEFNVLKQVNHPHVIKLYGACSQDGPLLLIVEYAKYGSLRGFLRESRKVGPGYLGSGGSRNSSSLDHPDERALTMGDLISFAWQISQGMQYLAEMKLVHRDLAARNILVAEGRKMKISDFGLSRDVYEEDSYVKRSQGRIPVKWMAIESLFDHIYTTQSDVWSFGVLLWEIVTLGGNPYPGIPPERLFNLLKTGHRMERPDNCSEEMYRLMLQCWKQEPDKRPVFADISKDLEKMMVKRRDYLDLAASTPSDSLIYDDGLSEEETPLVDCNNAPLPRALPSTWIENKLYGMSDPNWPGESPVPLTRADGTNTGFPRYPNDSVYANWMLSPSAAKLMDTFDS

[6] = molecular target: Death-associated protein kinase 3 (Homo sapiens, UniProt O43293);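 further: measured as one member of a kinome-wide profiling panel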
Activin receptor type-1 = Activin receptor type-1 (Homo sapiens, UniProt Q04771); test: Navigating the Kinome. Panel member name: ACVR1
[7] = molecular target: Mitogen-activated protein kinase 8 (Homo sapiens, UniProt P45983);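 further: value comes from one member of a kinome-wide kinase profiling panel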
Chain of Mitogen-activated protein kinase 8 (P45983 whole entry): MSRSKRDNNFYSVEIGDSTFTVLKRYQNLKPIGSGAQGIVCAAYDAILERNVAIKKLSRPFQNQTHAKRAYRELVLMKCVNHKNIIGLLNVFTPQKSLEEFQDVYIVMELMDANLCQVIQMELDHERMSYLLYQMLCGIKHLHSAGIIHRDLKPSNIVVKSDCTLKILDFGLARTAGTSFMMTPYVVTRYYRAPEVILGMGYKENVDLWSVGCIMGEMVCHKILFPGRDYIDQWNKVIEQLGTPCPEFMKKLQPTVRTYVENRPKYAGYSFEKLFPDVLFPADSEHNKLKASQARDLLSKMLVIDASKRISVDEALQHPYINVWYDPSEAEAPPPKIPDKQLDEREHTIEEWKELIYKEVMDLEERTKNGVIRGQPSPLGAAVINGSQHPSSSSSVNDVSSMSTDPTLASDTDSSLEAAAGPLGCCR

[8] = molecular target: Serine/threonine-protein kinase PAK 4 (Homo sapiens, UniProt O96013);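 further: value obtained within a kinome profiling panel in which PAK4 was one of the panel members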
[9] = molecular target: Casein kinase I isoform alpha (Homo sapiens, UniProt P48729)
Chain of Casein kinase I isoform alpha (P48729 whole entry, canonical isoform): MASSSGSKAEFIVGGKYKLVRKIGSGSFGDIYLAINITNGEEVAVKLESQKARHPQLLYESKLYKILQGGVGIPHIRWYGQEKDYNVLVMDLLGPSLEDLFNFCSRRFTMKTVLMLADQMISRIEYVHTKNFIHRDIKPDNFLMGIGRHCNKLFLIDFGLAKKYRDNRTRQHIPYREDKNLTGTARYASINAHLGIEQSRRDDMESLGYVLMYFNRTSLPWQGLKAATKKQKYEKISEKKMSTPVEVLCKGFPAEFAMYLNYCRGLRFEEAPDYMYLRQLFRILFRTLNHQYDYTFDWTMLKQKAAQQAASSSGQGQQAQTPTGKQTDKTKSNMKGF

[10] = molecular target: Tyrosine-protein kinase JAK3 (Homo sapiens, UniProt P52333)
LIM domain kinase 1 = LIM domain kinase 1 (Homo sapiens, UniProt P53667); test: Navigating the Kinome. Panel member name: LIMK1
[11] = molecular target: High affinity nerve growth factor receptor (Homo sapiens, UniProt P04629);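 further: NTRK1 tested as one member of a kinome-wide profiling panel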
[12] = molecular target: Serine/threonine-protein kinase Chk1 (Homo sapiens, UniProt O14757);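 further: measured as one member of a kinome-wide kinase profiling panel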
[13] = molecular target: Tyrosine-protein kinase ABL1 (Homo sapiens, UniProt P00519)
[14] = molecular target: Vascular endothelial growth factor receptor 2 (Homo sapiens, UniProt P35968)
[15] = molecular target: Insulin-like growth factor 1 receptor (Homo sapiens, UniProt P08069); test: Navigating the Kinome. Panel member name: IGF1R
[16] = molecular target: Dual specificity tyrosine-phosphorylation-regulated kinase 1B (Homo sapiens, UniProt Q9Y463); test: Navigating the Kinome. Panel member name: DYRK1B
Aurora kinase B = Aurora kinase B (Homo sapiens, UniProt Q96GD4)
[17] = molecular target: Rho-associated protein kinase 1 (Homo sapiens, UniProt Q13464);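 further: measured within a broad kinome-wide panel profiling many kinases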
Chain of Rho-associated protein kinase 1 (Q13464 whole entry): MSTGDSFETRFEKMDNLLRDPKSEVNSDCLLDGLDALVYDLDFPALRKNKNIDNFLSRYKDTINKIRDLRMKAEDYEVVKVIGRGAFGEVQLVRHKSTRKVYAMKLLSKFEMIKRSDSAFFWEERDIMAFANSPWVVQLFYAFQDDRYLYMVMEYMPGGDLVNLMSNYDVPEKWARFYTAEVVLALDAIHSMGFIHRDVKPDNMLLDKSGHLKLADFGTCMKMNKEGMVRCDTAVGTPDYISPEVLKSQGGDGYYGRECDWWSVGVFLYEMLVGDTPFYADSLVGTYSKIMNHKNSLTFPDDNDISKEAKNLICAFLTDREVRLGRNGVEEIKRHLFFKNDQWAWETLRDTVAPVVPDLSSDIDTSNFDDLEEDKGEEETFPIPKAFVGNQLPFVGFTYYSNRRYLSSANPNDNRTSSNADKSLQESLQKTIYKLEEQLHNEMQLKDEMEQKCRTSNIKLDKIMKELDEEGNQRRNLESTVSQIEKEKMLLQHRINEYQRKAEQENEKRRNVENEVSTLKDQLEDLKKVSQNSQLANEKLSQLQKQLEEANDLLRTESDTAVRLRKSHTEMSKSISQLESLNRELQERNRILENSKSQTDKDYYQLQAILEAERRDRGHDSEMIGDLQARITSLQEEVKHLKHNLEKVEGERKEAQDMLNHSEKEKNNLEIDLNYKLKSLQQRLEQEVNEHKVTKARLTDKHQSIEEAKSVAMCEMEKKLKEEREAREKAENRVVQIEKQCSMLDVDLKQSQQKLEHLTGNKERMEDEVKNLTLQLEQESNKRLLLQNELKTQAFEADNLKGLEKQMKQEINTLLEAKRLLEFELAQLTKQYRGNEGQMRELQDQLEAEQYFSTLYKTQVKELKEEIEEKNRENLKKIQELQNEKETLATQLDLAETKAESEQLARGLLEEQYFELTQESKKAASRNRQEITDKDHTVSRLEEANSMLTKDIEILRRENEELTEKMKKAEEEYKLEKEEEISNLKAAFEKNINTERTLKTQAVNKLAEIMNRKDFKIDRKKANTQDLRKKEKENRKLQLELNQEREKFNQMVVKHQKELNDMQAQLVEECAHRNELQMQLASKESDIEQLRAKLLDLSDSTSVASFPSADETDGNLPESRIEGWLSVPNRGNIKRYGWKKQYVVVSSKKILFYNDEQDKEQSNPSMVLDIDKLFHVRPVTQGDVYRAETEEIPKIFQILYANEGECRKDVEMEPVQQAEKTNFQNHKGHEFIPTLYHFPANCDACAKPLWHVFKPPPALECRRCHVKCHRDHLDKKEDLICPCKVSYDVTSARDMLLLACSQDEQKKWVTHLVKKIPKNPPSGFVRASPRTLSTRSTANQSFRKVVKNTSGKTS

[18] = molecular target: Vascular endothelial growth factor receptor 1 (Homo sapiens, UniProt P17948);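 further: measured within a kinome-wide profiling panel, FLT1 as the panel member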
[19] = molecular target: Cyclin-dependent kinase 9 (Homo sapiens, UniProt P50750);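 further: value from the CDK9 entry of a kinome-spanning kinase panel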
Chain of Cyclin-dependent kinase 9 (P50750 whole entry): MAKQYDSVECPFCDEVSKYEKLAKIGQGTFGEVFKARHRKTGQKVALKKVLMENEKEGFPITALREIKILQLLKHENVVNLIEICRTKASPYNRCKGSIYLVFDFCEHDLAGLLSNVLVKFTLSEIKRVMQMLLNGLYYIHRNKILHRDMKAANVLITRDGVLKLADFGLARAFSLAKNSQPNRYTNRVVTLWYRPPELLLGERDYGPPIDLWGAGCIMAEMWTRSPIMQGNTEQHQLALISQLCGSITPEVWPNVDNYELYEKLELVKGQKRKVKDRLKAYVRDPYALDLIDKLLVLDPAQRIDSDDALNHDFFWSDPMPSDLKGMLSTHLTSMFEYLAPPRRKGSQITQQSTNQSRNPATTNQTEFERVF

[20] = molecular target: BDNF/NT-3 growth factors receptor (Homo sapiens, UniProt Q16620);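 further: NTRK2 measured as one member of a broad kinome-wide kinase profiling panel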
Chain of BDNF/NT-3 growth factors receptor (Q16620 whole entry): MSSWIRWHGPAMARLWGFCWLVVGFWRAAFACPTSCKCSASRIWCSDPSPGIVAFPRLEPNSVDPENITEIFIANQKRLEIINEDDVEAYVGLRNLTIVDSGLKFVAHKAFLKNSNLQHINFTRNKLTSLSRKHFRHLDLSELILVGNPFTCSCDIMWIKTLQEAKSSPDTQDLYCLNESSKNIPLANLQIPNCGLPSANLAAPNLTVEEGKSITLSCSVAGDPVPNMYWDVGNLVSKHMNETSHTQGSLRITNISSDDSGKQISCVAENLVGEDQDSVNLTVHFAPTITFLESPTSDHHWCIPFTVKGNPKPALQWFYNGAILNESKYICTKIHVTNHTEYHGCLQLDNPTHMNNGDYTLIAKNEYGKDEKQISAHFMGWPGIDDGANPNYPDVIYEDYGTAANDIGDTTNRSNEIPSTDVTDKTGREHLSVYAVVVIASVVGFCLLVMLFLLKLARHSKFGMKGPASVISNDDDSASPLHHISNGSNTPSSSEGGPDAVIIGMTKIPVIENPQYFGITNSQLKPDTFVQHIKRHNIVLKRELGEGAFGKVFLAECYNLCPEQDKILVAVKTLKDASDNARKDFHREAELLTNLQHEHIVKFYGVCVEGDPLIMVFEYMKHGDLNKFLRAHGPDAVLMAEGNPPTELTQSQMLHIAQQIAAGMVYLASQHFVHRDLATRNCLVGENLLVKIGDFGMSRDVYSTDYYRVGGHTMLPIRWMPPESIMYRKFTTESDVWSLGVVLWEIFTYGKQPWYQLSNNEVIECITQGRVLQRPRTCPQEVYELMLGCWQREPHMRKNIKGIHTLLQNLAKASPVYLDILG

[21] = molecular target: Mitogen-activated protein kinase 14 (Homo sapiens, UniProt Q16539);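 further: part of a kinome-wide panel, MAPK14 entry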
[22] = molecular target: Ribosomal protein S6 kinase alpha-3 (Homo sapiens, UniProt P51812);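 further: measured within a kinome-wide profiling panel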
[23] = molecular target: Tyrosine-protein kinase Lck (Homo sapiens, UniProt P06239);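 further: lck was assayed as one member of a kinase panel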
[24] = molecular target: Hepatocyte growth factor receptor (Homo sapiens, UniProt P08581);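 further: kinase panel profiling across the kinome, with MET as the panel member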
Focal adhesion kinase 1 = Focal adhesion kinase 1 (Homo sapiens, UniProt Q05397);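 further: measured as one member of a kinome panel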

Chain of Dual specificity protein kinase CLK2 (P49760 whole entry): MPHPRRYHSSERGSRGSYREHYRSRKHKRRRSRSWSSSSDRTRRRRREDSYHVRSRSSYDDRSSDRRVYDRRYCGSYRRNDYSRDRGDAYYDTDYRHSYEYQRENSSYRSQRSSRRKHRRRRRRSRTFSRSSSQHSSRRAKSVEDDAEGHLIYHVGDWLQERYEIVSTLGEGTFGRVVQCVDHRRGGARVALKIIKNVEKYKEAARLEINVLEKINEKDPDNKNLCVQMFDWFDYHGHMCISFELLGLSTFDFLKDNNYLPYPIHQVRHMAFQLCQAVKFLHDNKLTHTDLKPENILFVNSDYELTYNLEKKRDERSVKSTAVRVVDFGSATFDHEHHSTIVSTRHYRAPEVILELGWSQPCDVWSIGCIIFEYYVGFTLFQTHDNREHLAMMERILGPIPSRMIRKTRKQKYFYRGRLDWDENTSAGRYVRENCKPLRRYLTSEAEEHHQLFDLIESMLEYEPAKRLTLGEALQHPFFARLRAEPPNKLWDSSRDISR

| Structure (SMILES) | Ki [1] | Ki [2] | Ki [3] | Ki [4] | Ki [5] | Ki [6] | Ki [7] | Ki [8] | Ki [9] | Ki [10] | Ki [11] | Ki [14] | Ki [15] | Ki [16] | Ki [17] | Ki [18] | Ki [19] | Ki [20] | Ki [21] | further results |
| --- | --- | --- | --- | --- | --- | --- | --- | --- | --- | --- | --- | --- | --- | --- | --- | --- | --- | --- | --- | --- |
| COc1cccc(C(C)NC(=O)c2cnc(-c3ccncc3)nc2)c1 (configuration not stated) | 0.631 µM (active) | > 3.98 µM (inactive) | > 2.51 µM (inactive) | > 3.16 µM (inactive) | > 3.16 µM (inactive) | > 5.01 µM (inactive) | > 5.01 µM (inactive) | > 5.01 µM (inactive) | > 3.98 µM (inactive) | > 5.01 µM (inactive) | > 3.16 µM (inactive) | > 2.51 µM (inactive) | > 2.51 µM (inactive) | > 2.51 µM (inactive) | 0.00398 µM (active) | > 3.98 µM (inactive) | > 1.58 µM (inactive) | > 3.98 µM (inactive) | > 3.98 µM (inactive) | Ki (Activin receptor type-1): > 3.98 µM (inactive); Ki (LIM domain kinase 1): > 3.16 µM (inactive); Ki [12]: > 3.16 µM (inactive); Ki [13]: > 3.98 µM (inactive); Ki (Aurora kinase B): > 3.98 µM (inactive) |
| CCCOc1cccc(C(C)NC(=O)c2ccc(-c3ccncc3F)cc2)c1 (configuration not stated) | 2 µM (active) | > 3.98 µM (inactive) | > 2.51 µM (inactive) | > 3.16 µM (inactive) | > 3.16 µM (inactive) | > 5.01 µM (inactive) | > 5.01 µM (inactive) | > 5.01 µM (inactive) | > 3.98 µM (inactive) | > 5.01 µM (inactive) | > 3.16 µM (inactive) | > 2.51 µM (inactive) | > 2.51 µM (inactive) | > 2.51 µM (inactive) | 0.000794 µM (active) | > 3.98 µM (inactive) | > 1.58 µM (inactive) | > 3.98 µM (inactive) | > 3.98 µM (inactive) | Ki [22]: > 3.98 µM (inactive); Ki [23]: > 6.31 µM (inactive); Ki [24]: > 2.51 µM (inactive); Ki (Focal adhesion kinase 1): > 6.31 µM (inactive) |
